Reference: PMC13652807, “A co-evolved peptide-GPCR system senses host entry to drive fungal infection” (Nature Communications, 2026)
Substitutions are numbered along the chain they refer to. Where a SMILES comes first, the peptide text is derived from it.

Experiments:
[1] = target: T1, Gpe1N246D+N247G (Mycosarcoma maydis, UniProt A0A0D1E6B3, N246D/N247G); test: Dose-response in yeast reporter assay, Gpe1 N246D+N247G; type: cell-based, Ustilago maydis; settings: Fig. 4e; receptor variant N246D+N247G; read-out: apparent EC50
T1 construct: expressed in transfected cells; host or cells: Saccharomyces cerevisiae reporter strain, plasmid pIL0351 (made from pIL0186)
T1 sequence (A0A0D1E6B3 1-435 N246D/N247G): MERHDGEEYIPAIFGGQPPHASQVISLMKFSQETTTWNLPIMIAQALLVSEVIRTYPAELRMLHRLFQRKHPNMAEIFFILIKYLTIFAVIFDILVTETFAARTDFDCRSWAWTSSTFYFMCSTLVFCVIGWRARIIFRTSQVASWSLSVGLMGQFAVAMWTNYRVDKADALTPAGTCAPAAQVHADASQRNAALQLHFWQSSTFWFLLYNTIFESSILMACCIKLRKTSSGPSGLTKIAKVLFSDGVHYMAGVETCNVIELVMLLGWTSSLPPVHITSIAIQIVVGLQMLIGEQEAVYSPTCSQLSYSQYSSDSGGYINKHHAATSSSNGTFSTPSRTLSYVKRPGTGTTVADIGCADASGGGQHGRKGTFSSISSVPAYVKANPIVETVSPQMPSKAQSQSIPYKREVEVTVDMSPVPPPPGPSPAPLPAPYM
Method: (§1) To test the functional relevance of this putative TM3–TM6 activation module, we generated Gpe1 variants targeting R133 and the adjacent TM6 residues N246 and N247 (Supplementary Fig. 5). Gpe1 variant activation was analyzed by the yeast reporter system. […] However, reduced activity of individual variants may also reflect effects on receptor stability or intracellular trafficking competence.
(§2) For the plasmid constructions, standard molecular cloning strategies and techniques were applied. For GPCR expression in S. cerevisiae, the ScSte2 expression vector pRS416[22] was digested with SpeI and XhoI to remove the ScSte2 gene. The pure backbone vector was used for classical restriction-ligation (T4 ligase) to clone the GPCR genes inside using unique restriction sites (SpeI and XhoI) added in the PCR gene amplification. For plasmid amplification, recombinant plasmids were transformed in chemically competent E. coli Top10 cells. […]
(§3) For dose response curves, 9 different concentrations (15 μM and […] five-fold dilutions starting at 8 μM peptide, sterile water was used as no peptide control) of the specific synthetic peptide were used. Experiments were performed in 96-well microtiter plates using a microplate reader (Tecan), and OD600 and red fluorescence were measured after 20 h. […]

[2] = target: T2, wild-type Gpe1 (Mycosarcoma maydis, UniProt A0A0D1E6B3); test: Dose-response of synthetic peptide in yeast reporter assay, wild-type Gpe1; type: cell-based, Ustilago maydis; settings: for EC50: 9 concentrations up to 15 µM, fluorescence after 20 h, four-parameter fit, Fig. 2b/2d, mean of three independent biological experiments
T2 construct: expressed in transfected cells; host or cells: Saccharomyces cerevisiae JTy014-derived reporter strain, plasmid pIL0186 (pRS416 backbone)
T2 sequence (A0A0D1E6B3 1-435): T1 sequence (A0A0D1E6B3 1-435 N246D/N247G) with D246N, G247N
Method: Experiments were performed in 96-well microtiter plates using a microplate reader (Tecan), and OD600 and red fluorescence were measured after 20 h. A four-parameter non-linear regression model (curve fit) was used using Prism (GraphPad 5): Agonist concentration vs. response (variable slope). After analysis, EC50, basal activation, maximal activation and the Hill coefficient was extracted as previously described.

[3] = target: T3, Gpe1N246L+N247L (Mycosarcoma maydis, UniProt A0A0D1E6B3, N246L/N247L); test: Dose-response in yeast reporter assay, Gpe1 N246L+N247L; type: cell-based, Ustilago maydis; settings: Fig. 4e; receptor variant N246L+N247L
T3 construct: expressed in transfected cells; host or cells: Saccharomyces cerevisiae reporter strain, plasmid pIL0350 (made from pIL0186)
T3 sequence (A0A0D1E6B3 1-435 N246L/N247L): T1 sequence (A0A0D1E6B3 1-435 N246D/N247G) with D246L, G247L
Method: as §1, §2, §3

[4] = target: T4, Gpe1R133A (Mycosarcoma maydis, UniProt A0A0D1E6B3, R133A); test: Dose-response in yeast reporter assay, Gpe1 R133A; type: cell-based, Ustilago maydis; settings: Fig. 4e; receptor variant R133A
T4 construct: expressed in transfected cells; host or cells: Saccharomyces cerevisiae reporter strain, plasmid pIL0373 (made from pIL0186)
T4 sequence (A0A0D1E6B3 1-435 R133A): T1 sequence (A0A0D1E6B3 1-435 N246D/N247G) with R133A, D246N, G247N
Method: as §1, §2, §3

[5] = target: UhGpe1 (Ustilago hordei)
[6] = target: G-protein-coupled receptor promoting fungal in planta expansion 1 (Gpe1) (Ustilago maydis)
[7] = tested on: UmGpe1 (Gpe1, UMAG_01374); test: GPCR activation assay in S. cerevisiae (yEmRFP reporter under FUS1 promoter), added protein/peptides; type: cell-based, Ustilago maydis
Text: To enable ligand identification, Gpe1 was then expressed in an engineered Saccharomyces cerevisiae strain to test receptor activation through production of a fluorescent reporter[22]. This strain is devoid of both endogenous mating GPCR genes (STE2 and STE3), all pheromone genes (MFA1/2 and MFALPHA1/MFALPHA2), BAR1, SST2 and FAR1[22]. And carries an unmodified version of ScGPA1, which is the homolog of U. maydis Gpa1[23]. The coupling of ScGPA1 with Gpe1, and later MAPK pathway activation, lead to the induction of a red fluorescent protein (yEmRFP) under control of the FUS1 promoter serves as readout.
The activation assays for each GPCR were performed as previously described with slight modifications[22]. […] Experiments were performed in 96-well microtiter plates using a microplate reader (Tecan), and OD600 and red fluorescence were measured after 8 h. Experiments were run in triplicate.
The mixture of tryptic-digested UmPit2 peptides were subjected to separation with a binary gradient of from 5 % to 95 % acetonitrile with a flowrate of 2 mL/min on an HPLC system (Agilent) for 60 min operated in a C-18 reverse phase column. The injection point was after 2 min and while the separation process was running, 2 mL sample was collected until fraction number 50. […]

[8] = tested on: S. cerevisiae Ste2; test: GPCR activation assay in S. cerevisiae, positive control; type: cell-based, Saccharomyces cerevisiae; settings: 10 µM α-factor, full agonist positive control; set to 100 %
Text: Three extra- and intracellular loops connect the TMs, with the N-terminal 35 residues and the 38 residues of the second extracellular loop (ECL2) forming an extracellular extension (Fig. 1b). ECL2 is also predicted to be connected to TM3 via a disulfide bond formed by Cys178 and Cys108 (Fig. 1b), a hallmark of many rhodopsin-class GPCRs[21]. To enable ligand identification, Gpe1 was then expressed in an engineered Saccharomyces cerevisiae strain to test receptor activation through production of a fluorescent reporter. This strain is devoid of both endogenous mating GPCR genes (STE2 and STE3), all pheromone genes (MFA1/2 and MFALPHA1/MFALPHA2), BAR1, SST2 and FAR1[22]. And carries an unmodified version of ScGPA1, which is the homolog of U. maydis Gpa1[23]. The coupling of ScGPA1 with Gpe1, and later MAPK pathway activation, lead to the induction of a red fluorescent protein (yEmRFP) under control of the FUS1 promoter serves as readout. Western blot analysis confirmed expression of Gpe1 in S. cerevisiae (Supplementary Fig.1b).
The activation assays for each GPCR were performed as previously described with slight modifications. […] Experiments were performed in 96-well microtiter plates using a microplate reader (Tecan), and OD600 and red fluorescence were measured after 8 h. Experiments were run in triplicate.

Compound: CC(C)C[C@H](NC(=O)[C@H](CO)NC(=O)CNC(=O)[C@@H](NC(=O)[C@H](Cc1ccccc1)NC(=O)CNC(=O)[C@H](Cc1ccccc1)NC(=O)[C@H](Cc1c[nH]c2ccccc12)NC(=O)[C@@H](N)Cc1c[nH]c2ccccc12)[C@@H](C)O)C(=O)O [Pit2.5] (H-WWFGFTGSL-OH)
- EC50 [1]: 400 nM
- EC50 [2]: 80 nM
- EC50 [3]: > 15000 nM
- EC50 [4]: > 15000 nM

Compound: CC(C)C[C@H](NC(=O)[C@H](CO)NC(=O)[C@H](CC(C)C)NC(=O)[C@@H](NC(=O)[C@H](Cc1ccccc1)NC(=O)CNC(=O)[C@H](Cc1ccccc1)NC(=O)[C@H](Cc1c[nH]c2ccccc12)NC(=O)[C@@H](N)Cc1c[nH]c2ccccc12)[C@@H](C)O)C(=O)O [pit2.17] (H-WWFGFTLSL-OH)
- EC50 [2]: 23 nM

Compound: AWFGFTGSL [pit2.13]
- Receptor activation in dose-response (in words) ([2]; Fig. 2d): abolished receptor activation

Compound: Pit2.5 (…) (peptide)
- activation level (% activity) in the S. cerevisiae biosensor assay [5]: 30%
- EC50 of the yEmRFP reporter in S. cerevisiae, dose response with synthetic peptide [6]: 80 nM

Compound: Pit2.5-G07L (peptide)
- EC50 of the yEmRFP reporter in S. cerevisiae, dose response with synthetic peptide; maximum fluorescence reduced [6]: 23 nM

Compound: Pit2: purified recombinant U. maydis effector protein Pit2 (UMAG_01375) lacking its signal peptide
- Gpe1 activation level, fluorescence normalized to the Ste2 activation being 100 % ([7]; 100 µM purified full-length Pit2 lacking signal peptide, red fluorescence after 8 h, mean of three independent biological experiments): ~ 25%

Compound: SrPit2 peptide
- activation level (% activity) in the S. cerevisiae biosensor assay [5]: 45%

Compound: WWFGFTGSLGK
- Identification as Gpe1 agonist ([7]; peptide fractionation of tryptic Pit2 digest and mass spectrometry): Gpe1 agonist

Compound: α-factor
- Ste2 activation, fluorescence level (normalization reference) [8]: 100%
